Reference: ChEMBL document CHEMBL2062489, “Design, synthesis and biological evaluation of simplified side chains of the macrolide antibiotic etnangien” (2012)
In brackets after ≈: the same amount, converted by molar mass. Activity calls are given as the source filed them. The calls are words filed in the database; no cut-off is given here.

Assays:
Micrococcus luteus = experiment: Antimicrobial activity against Micrococcus luteus by serial dilution method; format: functional
Gordonia rubripertincta = experiment: Antimicrobial activity against Nocardia coralline by serial dilution method; format: functional
Staphylococcus aureus = experiment: Antimicrobial activity against Staphylococcus aureus by serial dilution method; format: functional
Mycobacterium sp. = experiment: Antimicrobial activity against Mycobacterium sp. by serial dilution method; format: functional, organism-based
Bacillus subtilis = experiment: Antimicrobial activity against Bacillus subtilis by serial dilution method; format: functional
Saccharomyces cerevisiae = experiment: Antimicrobial activity against Saccharomyces cerevisiae by serial dilution method; format: functional
Escherichia coli = experiment: Antimicrobial activity against Escherichia coli by serial dilution method; format: functional
Agromyces mediolanus = experiment: Antimicrobial activity against Corynebacterium mediolanum by serial dilution method; format: functional
Mycolicibacterium phlei = experiment: Antimicrobial activity against Mycobacterium phlei by serial dilution method; format: functional
[1] = tested on: Corynebacterium glutamicum; experiment: Antimicrobial activity against Corynebacterium glutamicum by serial dilution method; format: functional

Row | SMILES | MIC (Micrococcus luteus) [µg/mL] | MIC (Staphylococcus aureus) [µg/mL] | MIC (Bacillus subtilis) [µg/mL] | MIC (Saccharomyces cerevisiae) [µg/mL] | MIC (Escherichia coli) [µg/mL] | MIC (Agromyces mediolanus) [µg/mL] | MIC (Mycolicibacterium phlei) [µg/mL] | MIC [1] [µg/mL] | Activity (Gordonia rubripertincta) | Activity (Mycobacterium sp.)
1 | COC(=O)CC/C=C/[C@@H](O)C/C=C/C=C/C=C/C=C/C=C/[C@@H](O)[C@@H](C)COCc1ccc(OC)cc1 | > 80 | > 80 | > 80 | > 80 | > 80 | > 80 | > 40 | 80 (≈ 161 µM) | – | –
2 | COC(=O)CC/C=C/[C@@H](O)C/C=C/C=C/C=C/CC/C=C/C=C/[C@@H](O)[C@@H](C)CO | > 80 | 80 (≈ 198 µM) | 20 (≈ 49.4 µM) | > 80 | > 80 | 40 (≈ 98.9 µM) | > 40 | 80 (≈ 198 µM) | – | –
3 | COC(=O)CC/C=C/[C@@H](O)C/C=C/C=C/C=C/C=C/C=C/[C@@H](O)[C@@H](C)CO | > 80 | > 80 | > 80 | > 80 | > 80 | > 80 | > 40 | > 80 | – | –
4 | COC(=O)CC/C=C/[C@@H](O)C/C=C/C=C/C=C/CC/C=C/C=C/[C@@H](O)[C@@H](C)COCc1ccc(OC)cc1 | > 80 | > 80 | > 80 | > 80 | > 80 | > 80 | > 40 | > 80 | – | –

Further lines, with some results ahead:

Row | MIC (Micrococcus luteus) [µg/mL] | MIC (Staphylococcus aureus) [µg/mL] | MIC (Bacillus subtilis) [µg/mL] | MIC (Saccharomyces cerevisiae) [µg/mL] | MIC (Escherichia coli) [µg/mL] | MIC (Agromyces mediolanus) [µg/mL] | MIC (Mycolicibacterium phlei) [µg/mL] | MIC [1] [µg/mL] | SMILES | Activity (Gordonia rubripertincta) | Activity (Mycobacterium sp.)
5 | 0.39 (≈ 0.464 µM) | 1 (≈ 1.19 µM) | 10 (≈ 11.9 µM) | > 80 | > 80 | 0.06 (≈ 0.0713 µM) | 0.12 (≈ 0.143 µM) | 0.03 (≈ 0.0357 µM) | CO[C@@H]1C/C=C\C=C\C[C@H](C)[C@@H](O)[C@H](C)[C@@H](O)[C@H](C)[C@H](O)CC(=O)O[C@H]([C@H](C)[C@H](O)/C=C(C)/C=C/C=C/C=C/C=C/C=C/C[C@H](O)/C(C)=C/CCC(=O)O)C[C@H](O)CCC1 [ETNANGIEN] | Active | Active
6 | > 40 | > 40 | > 40 | > 40 | > 40 | > 40 | > 40 | > 40 | COC(=O)CC/C(C)=C/[C@@H](O)C/C=C/C=C/C=C/C=C/C=C/C(C)=C/[C@@H](O)[C@@H](C)COCc1ccc(OC)cc1 | – | –
7 | 0.06 (≈ 0.0702 µM) | 2.5 (≈ 2.92 µM) | 20 (≈ 23.4 µM) | > 40 | > 20 | – | – | 0.24 (≈ 0.281 µM) | COC(=O)CC/C=C(\C)[C@@H](O)C/C=C/C=C/C=C/C=C/C=C/C(C)=C/[C@@H](O)[C@@H](C)[C@@H]1C[C@H](O)CCC[C@H](OC)C/C=C\C=C\C[C@H](C)[C@@H](O)[C@H](C)[C@@H](O)[C@H](C)[C@H](O)CC(=O)O1 [ETNANGIEN METHYL ESTER] | Active | Active
